Assay results from US10300029B2, “Organ protection solutions and method of use” (VIRGINIA COMMONWEALTH UNIVERSITY, priority 2011, dated 2019).

Assays:
shocked rodents = assay: Hemorrhagic shock model, low volume resuscitation with gluconate (Example 4); assay type: in vivo
Description: Gluconate was administered in the organ protectant solution (e.g., a low volume resuscitation (LVR) solution with cell impermeants according to the present invention) in order to achieve a theoretical gluconate concentration of about 60 mM in the extracellular fluid compartment (subsequent experiments have shown that about 100 mM is probably optimal). The idea of low volume resuscitation is to give the shocked patient small volumes of intravenous fluids to prolong the time on the field to allow for rescue and transport to a forward hospital where more definitive resuscitation can occur (due to fewer resource limitations). The purpose of the addition of the cell impermeants to the LVR solution (usually saline) was to increase this “down time” further, effectively increasing the tolerance to the low flow state and making it more likely that the patient can survive the wait to the hospital. Essentially, the objective is to increase the “Golden Hour”.
In shock experiments, the time that the control animals could remain in the low volume state (after LVR administration) was 64 minutes. […] This means that these subjects were able to stay safely in the low volume state for much longer periods. In practical terms, they can wait longer for transport and full resuscitation, yet presumably have a higher chance of survival.

rodent capillaries = system: rodent capillaries; design: species or system rats; conditions: rat, in vivo
Description: FIG. 10A-D. A) Diagram showing the shock, resuscitation, and recovery protocol used for these studies. The low volume resuscitation (LVR) time is the time from the start of the low volume resuscitation (after the lactate during hemorrhagic shock reaches 9-10 mM) until the time after the LVR infusion when the lactate rises back up to 9-10 mM again. This immediately precedes full resuscitation. The LVR time is a measure of the tolerance to the low volume state and is a function of the microcirculatory effectiveness since it is dependent on the rate of change of the plasma lactate. […] The numbers on the x-axis are the corresponding lactate concentrations in the plasma at the end of the LVR period. Most are close to 10 mM because that was the definition of the end of the LVR period. […] D) The oncotic reflection coefficient (σd) for PEG-20k was measured in six rats to determine the impermeant and the oncotic effects of this molecule in both the mesenteric vascular bed and the thoracic bed. FITC-labeled PEG-20k was used as a tracer molecule and the reflection coefficient was determined by measuring the lymph (L) to plasma (P) concentrations of FITC-PEG after an IV injection of the tracer under conditions of high lymph flow induced by volume loading with I.V. saline infusions (0.25 ml/min). […] FITC-labelled PEG-20k was measured by excitation-emission spectrofluorometry. […]

[1] = system: juvenile swine in hemorrhagic shock
Excerpt: Saline control • b. […] Results

[2] = 24 hours after shock and resuscitation, vs controls

Description for normal pig blood: The (A) PT-INR and (B) aPTT effects were determined in both normal pig blood after ex-vivo mixing with PEG-20k LVR solutions (10% dilution) or with a saline control, also at a 10% solution, and after the end of the LVR period in pigs given PEG-20k based LVR solutions.
Juvenile swine (35-40 kn) were anesthetized with Ketamine/Xylazine, and propofol induction followed by isofluorane inhalation anesthesia maintenance (1-2%). A swan-Ganz catheter was introduced into the pulmonary artery via a cut down of the right jugular vein for the continuous measurement of cardiac output, pulmonary artery pressures, and sVO2 (mixed venous O2 saturation) by an optical sensor on the PA catheter. Blood pressure and arterial blood gases were measured by a line in the femoral artery. A line in the carotid artery and contralateral jugular vein was used for bleeding and resuscitation, respectively. […]
Finally, coagulation was determined in both normal pig blood after ex-vivo mixing with PEG-20k LVR solutions (10% dilution) or with a saline control, also at a 10% solution, and after the end of the LVR period in pigs given PEG-20k based LVR solutions.

Compound | albumin (shocked rodents; [2]) | liver enzymes (shocked rodents; [2]) | metabolic acidosis (shocked rodents; [2]) | LVR time (shocked rodents; gluconate added to LVR solution, theoretical about 60 mM in extracellular fluid) | capillary oncotic reflection coefficient (rodent capillaries) | coagulation (PT-INR, aPTT), in-vivo [1] | coagulation (PT-INR, aPTT), ex-vivo mixing test (normal pig blood)
O=C(O)[C@H](O)[C@@H](O)[C@H](O)[C@H](O)CO [gluconate] | higher | lower | less | over 106 minutes | – | – | –
polyethylene glycol 20,000 [PEG-20k] | – | – | – | – | about 0.65 | not altered | not altered
